Toxic doses and inconclusive results are not listed.

Experimental findings from PubChem BioAssay AID330 (DTP/NCI, 2004) are described below.

This experiment deals with P388 leukemia ip, CD2F1 mice, survival T/C. Nature of the experiment: NCI In Vivo Anticancer Drug Screen. Data for tumor model P388 Leukemia (intraperitoneal) in CD2F1 (CDF1) mice. The following applies: endpoint: median survival time, higher = longer survival. In short, it runs like this: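 Mice carrying the transplanted tumor received test compound or vehicle. Survival was recorded in each group, and the value is the treated-group measurement divided by that of the vehicle-treated control group.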

[1] abbreviates: dose: 50.0 mg/kg/injection, schedule: Q01DX005 (ip), vehicle: saline with Tween-80.
[2] abbreviates: dose: 100.0 mg/kg/injection, schedule: Q01DX005 (ip), vehicle: saline with Tween-80.
Setting [3] is: dose: 200.0 mg/kg/injection, schedule: Q01DX005 (ip), vehicle: saline with Tween-80.
Setting [4] is: dose: 50.0 mg/kg/injection, schedule: Q01DX009 (ip), vehicle: saline with Tween-80.
The mark [5] stands for this setting: dose: 100.0 mg/kg/injection, schedule: Q01DX009 (ip), vehicle: saline with Tween-80.
[6] abbreviates: dose: 200.0 mg/kg/injection, schedule: Q01DX009 (ip), vehicle: saline with Tween-80.
[7] abbreviates: dose: 60.0 mg/kg/injection, schedule: Q01DX005 (ip), vehicle: saline with Tween-80.
Where [8] appears, read: dose: 120.0 mg/kg/injection, schedule: Q01DX005 (ip), vehicle: saline with Tween-80.
The mark [9] stands for this setting: dose: 240.0 mg/kg/injection, schedule: Q01DX005 (ip), vehicle: saline with Tween-80.
[10] abbreviates: dose: 60.0 mg/kg/injection, schedule: Q01DX005 (ip), vehicle: Klucel (hydroxypropylcellulose) (HPC).
[11] abbreviates: dose: 120.0 mg/kg/injection, schedule: Q01DX005 (ip), vehicle: Klucel (hydroxypropylcellulose) (HPC).
Where [12] appears, read: dose: 240.0 mg/kg/injection, schedule: Q01DX005 (ip), vehicle: Klucel (hydroxypropylcellulose) (HPC).
Where [13] appears, read: dose: 25.0 mg/kg/injection, schedule: Q01DX005 (ip), vehicle: saline with Tween-80.
Where [14] appears, read: dose: 50.0 mg/kg/injection, schedule: Q01DX009 (ip), vehicle: Klucel (hydroxypropylcellulose) (HPC).
Setting [15] is: dose: 100.0 mg/kg/injection, schedule: Q01DX009 (ip), vehicle: Klucel (hydroxypropylcellulose) (HPC).
The mark [16] stands for this setting: dose: 200.0 mg/kg/injection, schedule: Q01DX009 (ip), vehicle: Klucel (hydroxypropylcellulose) (HPC).

`CS(=N)(=O)CCC(N)P(=O)(O)O` (stereo not given): the T/C is 95 % of control (dose: 50.0 mg/kg/injection, schedule: Q01DX005 (ip), vehicle: saline); 92 % of control (dose: 100.0 mg/kg/injection, schedule: Q01DX005 (ip), vehicle: saline); 100 % of control (dose: 200.0 mg/kg/injection, schedule: Q01DX005 (ip), vehicle: saline).

As to `O=S(=O)(Nc1ncccn1)c1ccc(N=Cc2c3ccccc3nc3cc(Cl)ccc23)cc1`, the T/C is 91 % of control under setting [1], 90 % of control under setting [2] and 89 % of control under setting [3].

As for `COC(=O)C(NC(=O)c1ccccc1)C1CCC(Cl)CN1C(=O)OCc1ccccc1` (stereo not given), the T/C is 100 % of control (dose: 8.75 mg/kg/injection, schedule: Q01DX009 (ip), vehicle: Klucel (hydroxypropylcellulose) (HPC)); 100 % of control (dose: 17.5 mg/kg/injection, schedule: Q01DX009 (ip), vehicle: Klucel (hydroxypropylcellulose) (HPC)); 100 % of control (dose: 35.0 mg/kg/injection, schedule: Q01DX009 (ip), vehicle: Klucel (hydroxypropylcellulose) (HPC)); 92 % of control (dose: 70.0 mg/kg/injection, schedule: Q01DX009 (ip), vehicle: Klucel (hydroxypropylcellulose) (HPC)).

Consider `CCCC(C)c1ccc(OCc2ccc(C)cc2)cc1` (stereo not given), for which the T/C under setting [4] is 114 % of control, the T/C under setting [5] is 91 % of control and the T/C under setting [6] is 95 % of control.

Take `NC(CCCCNC(=O)c1ccccc1)C(=O)O` (stereo not given): the T/C is 101 % of control under setting [1], 93 % of control under setting [2] and 99 % of control under setting [3].

Turning to `CN(C)CCc1ccccn1`, the T/C was 101 % of control (dose: 25.0 mg/kg/injection, schedule: Q04DX003 (ip), vehicle: saline); 115 % of control (dose: 50.0 mg/kg/injection, schedule: Q04DX003 (ip), vehicle: saline); 94 % of control (dose: 100.0 mg/kg/injection, schedule: Q04DX003 (ip), vehicle: saline).

In the case of `O=C1Nc2ccccc2NC(=O)C(=C(c2ccccc2)c2ccccc2)C1=C(c1ccccc1)c1ccccc1`, the T/C was 90 % of control under setting [7], 89 % of control under setting [8] and 89 % of control under setting [9].

With `C=C1C(=O)OC2C(OC(C)=O)CCCC12` (stereo not given), the T/C under setting [10] was 112 % of control, the T/C under setting [11] is 103 % of control and the T/C under setting [12] is 108 % of control.

On to `C#CCOC1CC(C)(O)Cc2cc3c(c(O)c21)C(=O)c1c(O)cc2c(c1C3=O)OC1OC2(C)C(O)C(N(C)C)C1O` (stereo not given), for which, for the setting “dose: 20.0 mg/kg/injection, schedule: Q01DX009 (ip), vehicle: other”, the T/C is 89 % of control.

`CC1(C)[S][Sn]2[NH]C1C(=O)[O]2` (stereo not given): the T/C by setting is: (dose: 50.0 mg/kg/injection, schedule: Q01DX005 (ip), vehicle: Klucel (hydroxypropylcellulose) (HPC)) 98 % of control; (dose: 100.0 mg/kg/injection, schedule: Q01DX005 (ip), vehicle: Klucel (hydroxypropylcellulose) (HPC)) 94 % of control.

Consider `COC(=O)C1c2c(C)cc3n2C(C(C)=CC3)C1C(=O)OC` (stereo not given), for which the T/C by setting is: (dose: 100.0 mg/kg/injection, schedule: Q04DX003 (ip), vehicle: Klucel (hydroxypropylcellulose) (HPC)) 99 % of control; (dose: 200.0 mg/kg/injection, schedule: Q04DX003 (ip), vehicle: Klucel (hydroxypropylcellulose) (HPC)) 96 % of control; (dose: 400.0 mg/kg/injection, schedule: Q04DX003 (ip), vehicle: Klucel (hydroxypropylcellulose) (HPC)) 99 % of control.

For `Cc1cnc2c([N+](=O)[O-])cc(C)c(C)c2c1`, the T/C is 99 % of control under setting [4], 99 % of control under setting [5] and 92 % of control under setting [6].

With `CC(C)NC(=O)OCc1c(COC(=O)NC(C)C)c(S(=O)(=O)c2ccccc2)n2c1CCC2`, the T/C was 89 % of control under setting [13], 86 % of control under setting [1], 90 % of control under setting [2] and 93 % of control under setting [3].

With `Clc1ccccc1OCc1cnc[nH]1`, the T/C (dose: 25.0 mg/kg/injection, schedule: Q01DX009 (ip), vehicle: saline) is 102 % of control; the T/C (dose: 50.0 mg/kg/injection, schedule: Q01DX009 (ip), vehicle: saline) is 111 % of control; the T/C (dose: 100.0 mg/kg/injection, schedule: Q01DX009 (ip), vehicle: saline) was 117 % of control.

In the case of `COCCOCn1cccc1Cc1ccc(C)cc1`, the T/C is 100 % of control (dose: 100.0 mg/kg/injection, schedule: Q01DX001 (ip), vehicle: distilled water + alcohol); 96 % of control (dose: 200.0 mg/kg/injection, schedule: Q01DX001 (ip), vehicle: distilled water + alcohol); 99 % of control (dose: 400.0 mg/kg/injection, schedule: Q01DX001 (ip), vehicle: distilled water + alcohol).

Consider `Nc1nc2c(nnn2C2OC(COP(=O)(O)OP(=O)(O)O)C(O)C2O)c(=O)[nH]1` (stereo not given), for which the T/C is, setting by setting: (dose: 12.5 mg/kg/injection, schedule: Q01DX001 (ip), vehicle: saline) 110 % of control; (dose: 25.0 mg/kg/injection, schedule: Q01DX001 (ip), vehicle: saline) 110 % of control; (dose: 50.0 mg/kg/injection, schedule: Q01DX001 (ip), vehicle: saline) 116 % of control; (dose: 100.0 mg/kg/injection, schedule: Q01DX001 (ip), vehicle: saline) 117 % of control.

Consider `CC(=O)NNC(=O)Nc1ccc(Cl)c(Cl)c1`, for which the T/C was 108 % of control under setting [14], 103 % of control under setting [15] and 91 % of control under setting [16].

For the compound `COC(=O)c1nc(-c2ccc3c(n2)C(=O)C(N)=C(OC)C3=O)c(N)c(-c2ccc(OC)c(OC)c2O)c1C`, the T/C is, setting by setting: (dose: 1.5 mg/kg/injection, schedule: Q01DX009 (ip), vehicle: saline with Tween-80) 100 % of control; (dose: 3.0 mg/kg/injection, schedule: Q01DX009 (ip), vehicle: saline with Tween-80) 118 % of control; (dose: 6.0 mg/kg/injection, schedule: Q01DX009 (ip), vehicle: saline with Tween-80) 122 % of control; (dose: 6.25 mg/kg/injection, schedule: Q01DX009 (ip), vehicle: saline with Tween-80) 150 % of control; (dose: 66.0 mg/kg/injection, schedule: Q04DX003 (ip), vehicle: saline with Tween-80) 109 % of control.

As for `CCCCCN(CCCCC)CC(O)c1c(OC)ccc2ccccc12` (stereo not given), the T/C was 102 % of control (dose: 12.5 mg/kg/injection, schedule: Q01DX009 (ip), vehicle: Klucel (hydroxypropylcellulose) (HPC)); 103 % of control (dose: 25.0 mg/kg/injection, schedule: Q01DX009 (ip), vehicle: Klucel (hydroxypropylcellulose) (HPC)); 94 % of control under setting [14].

On to `CCCC(=O)O[C@H]1/C(=C/C(=O)OC)C[C@H]2C[C@H]([C@@H](C)O)OC(=O)C[C@H](O)C[C@@H]3C[C@H](OC(=O)CC(C)C)C(C)(C)[C@](O)(C[C@@H]4C/C(=C\C(=O)OC)C[C@H](/C=C/C(C)(C)[C@]1(O)O2)O4)O3`, for which the T/C was 111 % of control (dose: 0.01 mg/kg/injection, schedule: Q01DX009 (ip), vehicle: saline + alcohol) and 113 % of control (dose: 0.05 mg/kg/injection, schedule: Q01DX009 (ip), vehicle: saline + alcohol).

`NC(Cc1ccc(Br)cc1)c1nn[nH]n1` (stereo not given): the T/C was 104 % of control (dose: 25.0 mg/kg/injection, schedule: Q01DX009 (ip), vehicle: saline with Tween-80); 100 % of control under setting [4]; 100 % of control under setting [5].

In the case of `O=C1C2=C(Nc3cc([N+](=O)[O-])ccc3N2)OC1c1cccc([N+](=O)[O-])c1` (stereo not given), the T/C is, setting by setting: under setting [10], 97 % of control; under setting [11], 96 % of control; under setting [12], 102 % of control.

On to `O=c1oc(-c2ccc(Cl)c([N+](=O)[O-])c2)ns1`, for which the T/C is, setting by setting: under setting [15], 107 % of control; under setting [16], 113 % of control.

On to `COc1ccc(-c2[nH]c(=O)c(C#N)c(C(=O)NN)c2-c2ccc(OC)cc2)cc1`, for which the T/C is 112 % of control under setting [7], 100 % of control under setting [8] and 89 % of control under setting [9].

Consider `Cl/N=C1C=C/C(=N\Cl)C=C/1Cl`, for which the T/C (dose: 6.25 mg/kg/injection, schedule: Q01DX005 (ip), vehicle: saline with Tween-80) was 110 % of control; the T/C (dose: 12.5 mg/kg/injection, schedule: Q01DX005 (ip), vehicle: saline with Tween-80) is 110 % of control; the T/C under setting [13] is 107 % of control.
